# Experimental data published in patent publication US20260256799A1, “INHIBITORS FOR TREATING SOLID TUMOURS” (UNIVERSITY OF SOUTHAMPTON, priority 2023, published 2026).
# System: HNSCC and NSCLC CAF
# Test: Established myoCAF phenotype of CAF cultured ex vivo
# Type: cell-based, human
# Description: Human NSCLC cell line H441, HNSCC SCC25, murine cancer cell line TC-1 (lung), MC38 (colon) and human fetal foreskin fibroblasts HFFF2 were purchased from European Collection of Cell Cultures (Public Health England) or ATCC; HNSCC 5PT [32] were provided by l. Mackenzie (Queen Mary University of London, UK). HEK-293T cells and IMR90 lung fibroblasts were provided by Jesus Gil (Imperial College, London, UK). SCC25 were grown in Ham's F12:DMEM (1:1 ratio) medium with 10% FBS (Calbiochem) and 292 μg/ml L-Glutamine. 5PT were cultured in keratinocyte growth medium. HEK-293T, H441, MC38, HFFF2, IMR90 and primary fibroblasts were grown in DMEM supplemented with 10% FBS and 292 μg/ml L-Glutamine. Primary fibroblasts were isolated as previously used at early passage (p1-10). C57BL/6 murine normal lung and colon fibroblasts (MLF and MCF respectively) were grown at 3% oxygen. TC-1 were cultured in RPMI supplemented with 10% FBS and 292 μg/ml L-Glutamine. All cell cultures were routinely tested for mycoplasma contamination. All cells were cultured using standard cell culture plates/flasks (Corning). HFFF2 or IMR90 cells were transfected with 25 μM On-Target pool siRNA (Thermo Scientific/Dharmacon) using Oligofectamine reagent (Life Technologies) as described. Stable knockdown was performed using retro/lentiviral mediated transduction of shRNA plasmids, as previously described followed by cell selection using 1 μg/ml puromycin for 5-7 days. NOX4-inducible HEK-293 cells (kindly provided by Vincent Jaquet) were treated with 1 μg/ml doxycycline. Wild type and mutant (C2991L) ATM over-expression was carried out transfecting HFFF2 with Viafect (Promega) according to manufacturer's instructions and selected for 10 days with 4 mg/ml G418. p-Retrosuper-shATM (ATM #1:912) and pCDNA3.1-Flag-mut-ATM (C2991L; pTP1625 clone) were kindly provided by Yosef Shiloh and Tanya Paull respectively. pLKO.1 murine shATM (TRCN0000012643) and pCDNA3.1-Flag-wt-ATM (31985) were purchased from Sigma and Addgene respectively. 2 ng/ml TGF-3 (TGF-β1; R&D Systems; for 3 days) was used to induce myofibroblast differentiation. 10 ng/ml IL-1pR (R&D Systems) for 72 hours was used to induce iCAF differentiation. […] All the inhibitors were resuspended in DMSO. To trigger DDR activation and/or cell stress HFFF2 were either irradiated with 2-100Gy using 350Kv X-Ray Irradiation System (Faxitron), or treated with 100 ng/ml Neocarzinostatin for 2 hours (NCS; Sigma), with 2-10 mM H2O2(Fisher Scientific) or with 5 μg/ml Cisplatin (Sandoz) for 30 minutes.
# Cells were lysed in ice-cold RIPA buffer [1% NP40, 150 mM NaCl, 25 mM Tris-HCl pH 7.5, 0.1% SDS, 1% Na-Deoxycolate, 1 mM EGTA, 1 mM EDTA, 1 mM Na-orthovanadate, 10 mM Na-fluoride, 2.5 mM Na-pyrophosphate, 1 mM p glycerophosphate+freshly added 1 mM PMSF, 20 mM N-Ethylmaleimide (NEM), 10 ng/ml Microcystin-LR, 0.12 μM Okadaic acid and phosphatase and protease inhibitor cocktails; all from Sigma]. Protein extracts were then centrifuged and supernatants quantified using Dc-Bio-Rad protein assay kit (Bio-Rad laboratories) as previously. For nuclear-cytoplasmic protein extraction, the inventors used NE-PER Reagents according to manufacturer's instructions (Thermofisher). Equal amounts of protein were electrophoresed either in reducing (+Dithiothreitol, DTT) or in non-reducing conditions in 3-8% or 4-12% SDS-PAGE gels and electro blotted as previously.
compound,measurement,setting,value
CN(C)CCCOc1ccc(-c2ccc3ncc4c(c3c2)n(C2CCOCC2)c(=O)n4C)cn1 [AZD0156],myoCAF differentiation (reversal),"CAF E treated with AZD0156 for 5 days, Q-RT-PCR",reversed
same,reversal of myoCAF differentiation after AZD0156 treatment was discontinued,"CAF E, 5 days AZD0156 then further 5 days without AZD0156",maintained
